{
  "source": "patent US7485619B2",
  "about": "“Antimicrobial agent” (priority 2005, dated 2009)",
  "key": {"[1]": {"tested_on": "methicillin-resistant Staphylococcus aureus (ATCC 700698)", "assay_type": "cell-based", "experimental": "(§1) E. coli (ATCC 20922) (5×10^5 cells) in 100 μL of 10 mM Phosphate Buffer, pH 7.0 containing mucocidin peptide concentration of 5, 10, 15, 20, or 50 μM was incubated for an hour. Then, it was diluted 200 fold with the same buffer and 300 μL aliquots (approx. 750 cells) were plated on 150 mm LB plate and grown overnight at 37° C. The grown colonies were counted. The cell viability was estimated by the percent of colony forming units. Staphylococcus aureus (ATCC 25923) and methicillin resistant Staphylococcus aureus (MRSA) (ATCC 700698) were incubated with mucocidin concentration up to 5 μM. Candida albicans (ATCC 10231) were incubated with mucocidin concentration levels up to 50 μM^44."}, "[2]": {"tested_on": "Staphylococcus aureus (ATCC 25923)", "assay_type": "cell-based", "details": "for bactericidal activity (in words): Table 1", "experimental": "(§2) FIGS. 2A-2C show antimicrobial activity of mucocidin. (A) The growth rate of E. coli (0.5×10^3) containing pBluescript SK plasmid with mucocidin cDNA insert and the control E. coli containing plasmid alone in 20 ml LB broth cultured for 5 days. Cell growth was monitored by Absorbance at 600 nm (A600). Induction of vector expression by 20 μL isopropyl-B-D-thiogalactopyranoside (IPTG 1 mM) is on the bottom line. Each point represents average of five experiments. (B) Bactericidal activity of synthetic mucocidin peptide was measured by the percent colony formation units of E. coli and Staphylococcus aureus. Cells (5×10^5) were cultured in 100 μL in IB broth containing 0, 5, 10, 20 μM concentration of mucocidin. After one hour, cell viability was determined by plating 300 μL aliquots of the 200 fold diluted cultured cell broth on LBA or TSA plates, respectively. […] (C) Scanning electron micrographs of E. coli, Staphylococcus aureus and Candida albicans incubated with 10, […] mucocidin, respectively for 10, 20 and 30 min, and they were immediately fixed with glutaraldehyde, dried on the Millipore membrane, and coated with gold. […] All photographs were taken at the same magnification. Scale bar, 1 μm.\nas §1\nBactericidal activity of various deletion peptides of mucocidin (PeptRon, Korea) was compared with the activity of Magainin II (23 mer) peptide (Table 1). […] Also first 15 residue peptide likely functions as propeptide and native peptide will likely have 31 residues."}, "E. coli (ATCC25922)": {"tested_on": "E. coli (ATCC25922)", "assay_type": "cell-based", "details": "for decrease of colony forming unit (CFU) percentages: one hour incubation", "experimental": "as §2, §1"}, "E. coli [3]": {"tested_on": "E. coli", "test": "Scanning electron micrography of microbes treated with mucocidin", "assay_type": "cell-based", "details": "10 μM mucocidin; 10, 20 and 30 min", "experimental": "as §2\n(§3) Scanning Electron Micrographs were taken of E. coli, Staphylococcus aureus and Candida albicans incubated with 10, 40, 100 μM mucocidin, respectively for 10, 20 and 30 min, and they were immediately fixed with glutaraldehyde, dried on Millipore membrane, and coated with gold. […] All photographs were taken at the same magnification.\n(§4) The primary growth of E. coli containing the mucocidin peptide was inhibited in a dose-dependent manner (FIG. 2B). […] To explore a possible mechanism of mucocidin elicited bactericidal activity, the progress of morphological alteration of microbes upon the treatment of mucocidin was determined by scanning electron Microscopy. E. coli, Staphylococcus aureus and Candida albicans (FIG. 2C) incubated with 10, 40, 100 μM mucocidin, respectively for various time periods, were immediately fixed, dried, and coated with gold. […]"}, "Staphylococcus aureus": {"tested_on": "Staphylococcus aureus", "test": "Scanning electron micrography of microbes treated with mucocidin", "assay_type": "cell-based", "details": "40 μM mucocidin; 10, 20 and 30 min", "experimental": "as §2, §3, §4"}, "Candida albicans": {"tested_on": "Candida albicans", "test": "Scanning electron micrography of microbes treated with mucocidin", "assay_type": "cell-based", "details": "100 μM mucocidin; 10, 20 and 30 min", "experimental": "as §2, §3, §4"}, "[4]": {"molecular_target": "T1, guinea pig liver transglutaminase (UniProt P08587)", "T1 construct": "using guinea pig liver transglutaminase (Sigma, St. Luois, Mo.); purchased Sigma; host or cells: guinea pig liver", "T1 sequence (P08587 whole entry)": "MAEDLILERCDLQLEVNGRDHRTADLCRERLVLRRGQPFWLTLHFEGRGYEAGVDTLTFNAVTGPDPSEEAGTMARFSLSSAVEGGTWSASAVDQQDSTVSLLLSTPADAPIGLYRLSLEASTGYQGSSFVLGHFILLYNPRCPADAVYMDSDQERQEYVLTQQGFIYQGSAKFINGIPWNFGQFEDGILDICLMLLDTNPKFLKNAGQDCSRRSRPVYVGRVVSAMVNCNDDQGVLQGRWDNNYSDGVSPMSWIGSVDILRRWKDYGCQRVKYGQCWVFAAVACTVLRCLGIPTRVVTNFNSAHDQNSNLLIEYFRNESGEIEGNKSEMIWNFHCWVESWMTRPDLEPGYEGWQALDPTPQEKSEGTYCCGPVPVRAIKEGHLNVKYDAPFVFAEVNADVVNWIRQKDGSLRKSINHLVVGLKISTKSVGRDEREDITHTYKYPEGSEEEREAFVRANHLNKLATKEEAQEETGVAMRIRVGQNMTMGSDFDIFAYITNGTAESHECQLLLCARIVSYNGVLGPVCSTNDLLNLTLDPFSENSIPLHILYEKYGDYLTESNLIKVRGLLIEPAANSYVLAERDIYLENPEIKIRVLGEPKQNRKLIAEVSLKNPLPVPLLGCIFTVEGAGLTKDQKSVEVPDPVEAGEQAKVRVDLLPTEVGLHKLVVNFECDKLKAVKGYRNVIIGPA", "test": "Mucocidin as transglutaminase substrate, monodansylcadaverine incorporation", "assay_type": "biochemical", "details": "50 μM mucocidin, 10 μM MDC; 20, 40, 60, 120 min; with or without Ca++", "experimental": "Mucocidin as a transglutaminase substrate was carried out by a slightly modified method of previously described^27 using guinea pig liver transglutaminase (Sigma, St. Luois, Mo.). Transglutaminase assay was carried out by adding 10 μl of enzyme (10 μg) into 90 μL of reaction mixture containing 0.05 M tris acetate buffer, pH 8.0,1 mM EDTA, 5 mM dithiothreitol, 10 mM CaCl2, 0.2% lubrol, and 10 μM of monodansylcadaverine (MDC)(Sigma) and mucocidin (50 μM). Ten μL aliquot of the reaction mixture was removed at 20, 40, 60 and 120 min and added into 500 μL volume of 1 mM EDTA solution to halt the enzyme reaction. Unreacted MDC in solution was extracted with n-hexane. The reacted mucocidin in aqueous solution was blotted on a cellulose nitrate membrane in a slot filtering apparatus (Bio Rad Lab) and washed once with 0.5 mL of water. Relative fluorescence was indicated as a measure of MDC incorporated mucocidin. The aliquots taken from each sample was analyzed on SDS-PAGE.\nThese immunological staining of the mucosal epithelium indicate that mucocidin is expressed in the outer layers of epithelium and the secreted peptide remains bound to the epithelial surface. […]"}, "[5]": {"tested_on": "Candida albicans (ATCC 10231)", "assay_type": "cell-based", "experimental": "as §1"}, "E. coli (ATCC #8739)": {"tested_on": "E. coli (ATCC #8739)", "test": "USP Antimicrobial Test", "assay_type": "cell-based", "details": "three log dilution", "description": "(§5) The mucocidin (Microtest Laboratories Test sample #05-03383) met the requirement of the USP Validation of Microbial Recovery."}, "S. aureus (ATCC #6538)": {"tested_on": "S. aureus (ATCC #6538)", "test": "USP Antimicrobial Test", "assay_type": "cell-based", "details": "three log dilution", "description": "as §5"}, "[6]": {"tested_on": "Candida albicans (ATCC #10231)", "test": "USP Antimicrobial Test", "assay_type": "cell-based", "details": "three log dilution", "description": "as §5"}, "[7]": {"tested_on": "P. aeruginosa (ATCC #9027)", "test": "USP Antimicrobial Test", "assay_type": "cell-based", "details": "three log dilution", "description": "as §5"}, "[8]": {"tested_on": "Aspergellous niger (ATCC #16404)", "test": "USP Antimicrobial Test", "assay_type": "cell-based", "details": "three log dilution", "description": "as §5"}, "[9]": {"test": "Bacteriocidal activity of salivary mucocidin fractions", "assay_type": "cell-based", "details": "both Superose 12 peak fractions", "experimental": "Thirty milliliters of parotid saliva from each volunteer was collected into the tube containing 1.0 ml of 0.25 M citrate buffer, pH 4.0 containing 0.02% NaN3. The 10 ml acidified saliva was adsorbed into SP-Sepharose column (2.4×6 ml) equilibrated with 0.025 M citrate buffer pH 4.0, the column was washed with 3 fold column volume each of the equilibrating buffer and the 0.05 M tris-acetate buffer pH 6.0 containing 1 mM EDTA. The mucocidin was eluted with the 0.05 M tris-acetate buffer, pH 6.0 containing 0.15 M NaCl. The eluted mucocidin containing fractions assayed by immunodot blot analysis were pooled and concentrated in Speed-vac centrifuge evaporation apparatus. Pooled mucocidin fractions were applied to Superose 12 column equilibrated with 0.02 M tris-acetate buffer pH 6.0. Two of the mucocidin peaks were detected first at 8 kDa molecular weight marker and next far beyond the column volume."}, "E. coli [10]": {"tested_on": "E. coli", "test": "Antimicrobial activity of isolated native salivary mucocidin", "assay_type": "cell-based", "details": "data not shown"}},
  "note": "Read-outs that look alike come from different tables or passages of the source. No end group written: not given here.",
  "data": [
    {"compound": "CC1(C)S[C@@H]2[C@H](NC(=O)[C@H](N)c3ccccc3)C(=O)N2[C@H]1C(=O)O", "note": "[ampicillin, reference compound]", "values": [
      {"measurement": "sensitivity of methicillin-resistant Staphylococcus aureus (in words)", "setting": "[1]", "result": "insensitive"}
    ]},
    {"compound": "M^1HDFWVLWVLLEYIYNSACSVLS^23 (MHDFWVLWVLLEYIYNSACSVLS; listed as Homo sapiens) [Peptide 23-mer-N, mucocidin residues 1-23]", "values": [
      {"measurement": "bactericidal activity (in words)", "setting": "[2]", "result": "no activity"}
    ]},
    {"compound": "SRVLNRSLQVKVVKITN [Peptide 17-mer, SRVLNRSLQVKVVKITN]", "values": [
      {"measurement": "S. aureus (MBC, μM)", "setting": "[2]; ATCC 25923", "result": ">5.0", "unit": "µM"}
    ]},
    {"compound": "MHDFWVLWVLLEYIYNSACSVLSATSSVSSRVLNRSLQVKVVKITN [Peptide 46-mer]", "values": [
      {"measurement": "decrease of colony forming unit (CFU) percentages", "setting": "E. coli (ATCC25922); 5 μM mucocidin", "result": 20, "unit": "%"},
      {"measurement": "decrease of colony forming unit (CFU) percentages", "setting": "E. coli (ATCC25922); 10 μM mucocidin", "result": 40, "unit": "%"},
      {"measurement": "decrease of colony forming unit (CFU) percentages", "setting": "E. coli (ATCC25922); 15 μM mucocidin", "result": 50, "unit": "%"},
      {"measurement": "decrease of colony forming unit (CFU) percentages", "setting": "E. coli (ATCC25922); 20 μM mucocidin", "result": 60, "unit": "%"},
      {"measurement": "minimal bactericidal concentration (MBC)", "setting": "E. coli (ATCC25922); ATCC25922", "result": "40 ± 7.3", "unit": "µM"},
      {"measurement": "morphology of the microbe by SEM", "setting": "E. coli [3]", "result": "loss and shrinkage of original cell shapes"},
      {"measurement": "morphology of the microbe by SEM", "setting": "Staphylococcus aureus", "result": "loss and shrinkage of original cell shapes"},
      {"measurement": "morphology of the microbe by SEM", "setting": "Candida albicans", "result": "loss and shrinkage of original cell shapes"},
      {"measurement": "S. aureus (MBC, μM)", "setting": "[2]; ATCC 25923", "result": ">70.0", "unit": "µM"},
      {"measurement": "minimal bactericidal concentration (MBC)", "setting": "[2]; ATCC 25923", "result": "3 ± 0.5", "unit": "µM"},
      {"measurement": "sensitivity of primary growth of Staphylococcus aureus relative to E. coli", "setting": "[2]; S. aureus versus E. coli", "result": "ten fold more sensitive"},
      {"measurement": "bactericidal activity (in words)", "setting": "[2]", "result": "good bactericidal activity"},
      {"measurement": "time-dependent uptake of MDC into mucocidin", "setting": "[4]", "result": "detected only in the presence of Ca^++"},
      {"measurement": "minimal bactericidal concentration (MBC)", "setting": "[5]", "result": "80 ± 13.5", "unit": "µM"},
      {"measurement": "minimal bactericidal concentration (MBC)", "setting": "[1]", "result": "50 ± 10.9", "unit": "µM"},
      {"measurement": "sensitivity of methicillin-resistant Staphylococcus aureus (in words)", "setting": "[1]", "result": "very sensitive to low concentrations"}
    ]},
    {"compound": "GIGKFLHSAKKFGKAFVGEIMNS [Magainin II, reference compound]", "values": [
      {"measurement": "S. aureus (MBC, μM)", "setting": "[2]; Table 1, deletion peptides", "result": ">3.0", "unit": "µM"}
    ]},
    {"compound": "SSVSSRVLNRSLQVKVVKITN [Peptide 21-mer]", "values": [
      {"measurement": "S. aureus (MBC, μM)", "setting": "[2]; ATCC 25923", "result": ">3.5", "unit": "µM"}
    ]},
    {"compound": "VSSRVLNRSLQVKVVKITN [Peptide 19-mer, VSSRVLNRSLQVKVVKITN]", "values": [
      {"measurement": "S. aureus (MBC, μM)", "setting": "[2]; ATCC 25923", "result": ">3.5", "unit": "µM"}
    ]},
    {"compound": "EYIYNSACSVLSATSSVSSRVLNRSLQVKVVKITN [Peptide 35-mer]", "values": [
      {"measurement": "S. aureus (MBC, μM)", "setting": "[2]; ATCC 25923", "result": ">50.0", "unit": "µM"}
    ]},
    {"compound": "ATSSVSSRVLNRSLQVKVVKITN [Peptide 23-mer-C]", "values": [
      {"measurement": "growth of the organism", "setting": "E. coli (ATCC #8739)", "result": "almost no growth"},
      {"measurement": "growth of the organism", "setting": "S. aureus (ATCC #6538)", "result": "almost no growth"},
      {"measurement": "growth of the organism", "setting": "[6]", "result": "almost no growth"},
      {"measurement": "growth of the organism", "setting": "[7]", "result": "almost no growth"},
      {"measurement": "growth of the organism", "setting": "[8]", "result": "almost no growth"},
      {"measurement": "S. aureus (MBC, μM)", "setting": "[2]; ATCC 25923", "result": ">10.0", "unit": "µM"}
    ]},
    {"compound": "isolated native salivary mucocidin: glycosylated native mucocidin isolated from human parotid saliva by ion exchange and Superose 12 chromatography (MHDFWVLWVLLEYIYNSACSVLSATSSVSSRVLNRSLQVKVVKITN; also: glycosylated, sites not given here)", "values": [
      {"measurement": "bacteriocidal activity", "setting": "[9]", "result": "bacteriocidal activity similar to mucocidin peptides"},
      {"measurement": "antimicrobial activity against E. coli", "setting": "E. coli [10]", "result": "retained antimicrobial activity"}
    ]},
    {"compound": "VLNRSLQVKVVKITN [Peptide 15-mer, VLNRSLQVKVVKITN]", "values": [
      {"measurement": "S. aureus (MBC, μM)", "setting": "[2]; ATCC 25923", "result": ">20.0", "unit": "µM"}
    ]}
  ]
}
